{
  "source": "patent US20090010902A1",
  "about": "(priority 2007, published 2009)",
  "key": {"[1]": {"test_system": "TLR4 mRNA in human intestinal tract epithelial cell strain HT-29", "type": "cell-based"}, "TLR4 protein": {"test_system": "TLR4 protein", "settings": "summary statement; no method described"}},
  "data": [
    {"smiles": "CCCC(=O)O", "note": "[butyric acid]", "values": [
      {"measurement": "TLR4 mRNA expression (result in words)", "setting": "[1]", "value": "similarly reduced"},
      {"measurement": "expression amount of TLR4 protein (result in words)", "setting": "TLR4 protein", "value": "reduced"}
    ]}
  ]
}
